Laboratory results published in US11643439B2, “Multi-target compound with anticoagulation and antiplatelet activity, preparation method therefor, and use thereof” (SHAANXI MICOT TECHNOLOGY LIMITED COMPANY, priority 2015, dated 2023).

Columns and labels:
[1] = system: blood coagulation function; test: APTT in rabbits, single intravenous administration; assay type: in vivo, rabbit; conditions: single iv 200 (U/kg)
Procedure: (§1) 1. Grouping and administration: 48 Rabbits were randomly divided into 6 groups, 8 rabbits per group. 1) Sham operation group (NS): Intravenous injection of the same volume of physiological saline; 2) positive control bivalirudin group (6 mg/kg); 3) positive control enoxaparin group (200 U/kg); 4) Low dose group of polypeptide 2 (3.0 mg/kg); 5) Medium dose group of polypeptide 2 (6.0 mg/kg); 6) High dose group of polypeptide 2 (12.0 mg/kg). Polypeptide 2 was administered by single intravenous administration. According to the body weight in kilograms of the rabbits, the sample was dissolved in 2 mL of physiological saline for single bolus injection. The sham operation group was administered with the same volume of physiological saline.
(§2) 3.2 Determination of blood coagulation function: Blood samples were taken and the blood function (PT, TT, APTT) was determined at 0 min before administration, at points of 5 min and 15 min after administration, using a platelet-aggregation coagulation factor analyzer. Blood samples were centrifuged at 3510 rpm for 8 min to obtain platelet poor plasma (PPP). Reagent reconstruction and preservation were performed according to the operation requirements of the kit. Immediately after each blood sample was placed into a test cup and then added with PT. TT and APTT reagents, the test was started. After the test was completed, results were recorded.

[2] = system: FeCl3-induced common carotid arterial thrombosis; test: FeCl3-induced common carotid arterial thrombosis in rats; assay type: in vivo, rat
Procedure: 160 Rats were randomly divided into groups, 5 to 10 rats per group.
According to the body weight in kilograms of the rats, the first dose of a drug was dissolved in 2 mL of physiological saline for single bolus injection. The maintaining dose of drug was dissolved in 9 ml of physiological saline, and placed in a double-channel micro-injection pump, which was dripped off within 90 minutes at a dripping speed of 0.1 ml/min. The sham operation group was administered with the same volume of physiological saline.
The rats were fasted with free access to water overnight before the experiment.
After administration at a load dosage maintenance for 30 minutes, a filter paper with a 3 mm diameter and immersed with 35% FeCl3 solution was applied below the common carotid artery, below which a small piece of a plastic film (2.5 cm×2.0 cm) was placed to protect surrounding tissues. The body temperature was detected with a temperature probe in the distal end of the artery, and the time required from the beginning of stimulation to the point when the temperature decreased by 2.5 degrees was examined as the vascular occlusion time.
The time from the point when FeCl3 was placed to the point when the temperature of the artery indicated a decrease of 2.5° C. was the vascular occlusion time, which reflected the state of thrombus formation.

[3] = system: blood coagulation function; test: PT in rabbits, single intravenous administration; assay type: in vivo, rabbit; conditions: single iv 200 (U/kg)
Procedure: as §1, §2

platelet aggregation = test: Platelet aggregation in rabbits, single intravenous administration; assay type: in vivo, rabbit; conditions: single iv 200 (U/kg)
Procedure: as §1
3.1 Platelet aggregation rate: 2.7 ml of blood was taken from the femoral vein, rapidly injected into a centrifuge tube containing 0.3 ml of 3.8% sodium citrate solution, and fully mixed well. The resulted blood samples were centrifuged at 810 rpm (100 g) for 8 min to obtain PRP, which was taken out and centrifuged at 3500 rpm (1863 g) for 8 min to obtain PPP, which was used to determine platelet aggregation.
Blood samples were taken at a point before administration (0 min), and at points of administration for 5 min and 15 min, respectively, to determine the platelet aggregation rate, which was used to calculate the inhibitory rate of platelet aggregation with a calculation equation as follows: […]

whole blood coagulation = test: ACT in rabbits, single intravenous administration; assay type: in vivo, rabbit; conditions: single iv 200 (U/kg)
Procedure: as §1
3.3 Determination of ACT: At 0 min before administration and at points of administration for 5 min and 15 min, the whole blood was taken, to which kaolin was added, and placed in a water bath at 37° C. to record the whole blood coagulation time.

Enoxaparin
APTT fold of prolongation ([1]; Administration 5 min): 2.2 ± 0.5
APTT fold of prolongation ([1]; Administration 15 min): 1.8 ± 0.3
APTT ([1]; Administration for 5 min): 48.7 ± 3.9 s
APTT ([1]; Administration for 15 min): 40.9 ± 2.9 s
APTT ([1]; Before administration): 22.5 ± 1.1 s
Common carotid arterial thrombosis Fold of prolongation ([2]; iv 30 + 45 u (U/kg+U/kg/h)): 1.93 ± 0.52
Common carotid arterial thrombosis OT ([2]; iv 30 + 45 u (U/kg+U/kg/h)): 48.17 ± 13.12 min
Common carotid arterial thrombosis Fold of prolongation ([2]; iv 30 + 120 u (U/kg+U/kg/h)): 1.66 ± 0.27
Common carotid arterial thrombosis OT ([2]; iv 30 + 120 u (U/kg+U/kg/h)): 41.4 ± 6.68 min
Common carotid arterial thrombosis Fold of prolongation ([2]; iv 60 + 60 u (U/kg+U/kg/h)): 2.23 ± 0.29
Common carotid arterial thrombosis OT ([2]; iv 60 + 60 u (U/kg+U/kg/h)): 55.75 ± 7.23 min
Common carotid arterial thrombosis Fold of prolongation ([2]; iv 60 + 240 u (U/kg+U/kg/h)): 1.99 ± 0.20
Common carotid arterial thrombosis OT ([2]; iv 60 + 240 u (U/kg+U/kg/h)): 49.75 ± 5.04 min
Common carotid arterial thrombosis Fold of prolongation ([2]; iv 90 + 120 u (U/kg+U/kg/h)): 1.95 ± 0.46
Common carotid arterial thrombosis OT ([2]; iv 90 + 120 u (U/kg+U/kg/h)): 48.83 ± 11.58 min
PT fold of prolongation ([3]; Administration 5 min): 1.2 ± 0.1
PT fold of prolongation ([3]; Administration 15 min): 1.2 ± 0.1
PT ([3]; Administration for 5 min): 6.7 ± 1.1 S
PT ([3]; Administration for 15 min): 6.7 ± 0.8 S
PT ([3]; Before administration): 5.8 ± 0.2 S
inhibitory rate of platelet aggregation (platelet aggregation; Administration for 5 min): 9.5 ± 6.2%
inhibitory rate of platelet aggregation (platelet aggregation; Administration for 15 min): 16.1 ± 6.5%
ACT (whole blood coagulation; Administration for 5 min): 915.0 ± 37.7 s
ACT (whole blood coagulation; Administration for 15 min): 610.7 ± 25.7 s
ACT fold of prolongation (whole blood coagulation; After administration 5 min): 3.4 ± 1.1
ACT fold of prolongation (whole blood coagulation; After administration 15 min): 2.2 ± 0.7
ACT (whole blood coagulation; Before administration): 285.0 ± 25.6 s
